Tests used:
[1] = target: Ephrin type-A receptor 2 (Homo sapiens) (UniProt P29317); experiment: Selectivity interaction (KinomeScan (DiscoverX)) EUB0001049a EPHA2; settings: at 1 µM
[2] = target: Glycogen synthase kinase-3 beta (Homo sapiens, UniProt P49841); experiment: Selectivity interaction (KinomeScan (DiscoverX)) EUB0000229b GSK3B; settings: at 10 µM
[3] = target: Mitogen-activated protein kinase kinase kinase kinase 5 (Homo sapiens) (UniProt Q9Y4K4); experiment: Selectivity interaction (KinomeScan (DiscoverX)) EUB0000229b MAP4K5; settings: at 10 µM
[4] = target: Tyrosine-protein kinase receptor Tie-1 (Homo sapiens) (UniProt P35590); experiment: Selectivity interaction (KinomeScan (DiscoverX)) EUB0001079a TIE1; settings: at 1 µM
[5] = target: T1, Megakaryocyte-associated tyrosine-protein kinase (Homo sapiens) (UniProt P42679); experiment: Selectivity interaction (KinomeScan (DiscoverX)) EUB0001079a MATK; settings: at 1 µM
T1 sequence (whole entry): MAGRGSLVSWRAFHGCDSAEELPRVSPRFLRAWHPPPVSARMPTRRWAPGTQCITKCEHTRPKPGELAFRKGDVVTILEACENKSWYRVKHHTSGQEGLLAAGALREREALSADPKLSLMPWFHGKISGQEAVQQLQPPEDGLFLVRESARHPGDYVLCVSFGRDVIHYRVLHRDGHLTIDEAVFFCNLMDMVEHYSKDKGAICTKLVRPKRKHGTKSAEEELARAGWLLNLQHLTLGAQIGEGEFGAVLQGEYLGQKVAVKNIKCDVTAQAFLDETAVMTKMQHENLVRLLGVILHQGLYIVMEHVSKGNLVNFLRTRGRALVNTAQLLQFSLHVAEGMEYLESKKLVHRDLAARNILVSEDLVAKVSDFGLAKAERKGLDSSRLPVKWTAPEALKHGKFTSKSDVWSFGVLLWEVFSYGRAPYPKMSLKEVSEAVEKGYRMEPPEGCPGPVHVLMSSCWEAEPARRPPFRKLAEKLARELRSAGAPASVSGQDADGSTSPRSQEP

[6] = target: BMP-2-inducible protein kinase (Homo sapiens) (UniProt Q9NSY1); experiment: Selectivity interaction (KinomeScan (DiscoverX)) EUB0001079a BMP2K; settings: at 1 µM
[7] = target: Serine/threonine-protein kinase mTOR (Homo sapiens, UniProt P42345); experiment: Selectivity interaction (KinomeScan (DiscoverX)) EUB0001079a MTOR; settings: at 1 µM
[8] = target: Serine/threonine-protein kinase PLK1 (Homo sapiens, UniProt P53350); experiment: Selectivity interaction (KinomeScan (DiscoverX)) EUB0001079a PLK1; settings: at 1 µM
[9] = target: Cyclin-dependent kinase 17 (Homo sapiens) (UniProt Q00537); settings: at 10 µM
[10] = target: Ribosomal protein S6 kinase alpha-1 (Homo sapiens, UniProt Q15418); experiment: Selectivity interaction (ActivX KiNativ screen (kinase selectivity in THP-1 cell lysates)) EUB0000639a RPS6KA1; format: subcellular; settings: lysate, at 0.2 µM
[11] = target: Cyclin-dependent kinase 14 (Homo sapiens) (UniProt O94921); experiment: Selectivity interaction (ActivX KiNativ screen (kinase selectivity in THP-1 cell lysates)) EUB0000639a CDK14; format: subcellular; settings: lysate, at 5 µM
[12] = target: eIF-2-alpha kinase GCN2 (Homo sapiens) (UniProt Q9P2K8); experiment: Selectivity interaction (ActivX KiNativ screen (kinase selectivity in THP-1 cell lysates)) EUB0000639a EIF2AK4; format: subcellular; settings: lysate, at 0.2 µM
[13] = target: Rho-associated protein kinase 1 (Homo sapiens) (UniProt Q13464); experiment: Selectivity interaction (KinomeScan (DiscoverX)) EUB0000092b ROCK1; settings: at 10 µM
[14] = target: T2, Serine/threonine-protein kinase TBK1 (Homo sapiens) (UniProt Q9UHD2); experiment: Selectivity interaction (Kinase screening (Nanosyn)) EUB0000604a TBK1
T2 sequence (whole entry): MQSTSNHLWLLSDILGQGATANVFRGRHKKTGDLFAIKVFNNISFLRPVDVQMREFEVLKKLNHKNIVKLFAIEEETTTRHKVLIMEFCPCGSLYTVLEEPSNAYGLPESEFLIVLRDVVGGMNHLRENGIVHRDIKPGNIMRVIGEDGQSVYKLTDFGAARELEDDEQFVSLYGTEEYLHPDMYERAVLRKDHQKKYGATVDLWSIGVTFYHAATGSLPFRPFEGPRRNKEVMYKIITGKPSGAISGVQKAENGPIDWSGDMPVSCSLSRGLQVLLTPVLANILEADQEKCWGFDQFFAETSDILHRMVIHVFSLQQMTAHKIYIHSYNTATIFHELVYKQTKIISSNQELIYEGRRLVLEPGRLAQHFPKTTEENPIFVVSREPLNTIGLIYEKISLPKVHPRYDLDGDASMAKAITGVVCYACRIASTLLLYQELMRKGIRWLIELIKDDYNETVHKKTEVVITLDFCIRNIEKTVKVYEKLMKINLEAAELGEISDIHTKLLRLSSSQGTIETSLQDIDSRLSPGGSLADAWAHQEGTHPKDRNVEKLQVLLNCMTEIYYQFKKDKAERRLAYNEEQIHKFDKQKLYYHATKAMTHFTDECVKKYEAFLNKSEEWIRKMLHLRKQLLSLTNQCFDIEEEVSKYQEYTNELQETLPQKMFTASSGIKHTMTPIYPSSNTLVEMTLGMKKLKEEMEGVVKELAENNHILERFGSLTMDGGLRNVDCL

[15] = target: Mitogen-activated protein kinase kinase kinase 20 (Homo sapiens) (UniProt Q9NYL2); experiment: Selectivity interaction (Ambit KINOMEscan and KiNATiv profiling in Jurkat cells) EUB0000090b MAP3K20; format: cell-based; settings: at 1 µM
[16] = target: Poly [ADP-ribose] polymerase 1 (Homo sapiens, UniProt P09874); experiment: Selectivity interaction (Enzymatic assay (Reaction Biology)) EUB0001632a PARP1

Chain of BMP-2-inducible protein kinase (Homo sapiens) (Q9NSY1 whole entry, looked up): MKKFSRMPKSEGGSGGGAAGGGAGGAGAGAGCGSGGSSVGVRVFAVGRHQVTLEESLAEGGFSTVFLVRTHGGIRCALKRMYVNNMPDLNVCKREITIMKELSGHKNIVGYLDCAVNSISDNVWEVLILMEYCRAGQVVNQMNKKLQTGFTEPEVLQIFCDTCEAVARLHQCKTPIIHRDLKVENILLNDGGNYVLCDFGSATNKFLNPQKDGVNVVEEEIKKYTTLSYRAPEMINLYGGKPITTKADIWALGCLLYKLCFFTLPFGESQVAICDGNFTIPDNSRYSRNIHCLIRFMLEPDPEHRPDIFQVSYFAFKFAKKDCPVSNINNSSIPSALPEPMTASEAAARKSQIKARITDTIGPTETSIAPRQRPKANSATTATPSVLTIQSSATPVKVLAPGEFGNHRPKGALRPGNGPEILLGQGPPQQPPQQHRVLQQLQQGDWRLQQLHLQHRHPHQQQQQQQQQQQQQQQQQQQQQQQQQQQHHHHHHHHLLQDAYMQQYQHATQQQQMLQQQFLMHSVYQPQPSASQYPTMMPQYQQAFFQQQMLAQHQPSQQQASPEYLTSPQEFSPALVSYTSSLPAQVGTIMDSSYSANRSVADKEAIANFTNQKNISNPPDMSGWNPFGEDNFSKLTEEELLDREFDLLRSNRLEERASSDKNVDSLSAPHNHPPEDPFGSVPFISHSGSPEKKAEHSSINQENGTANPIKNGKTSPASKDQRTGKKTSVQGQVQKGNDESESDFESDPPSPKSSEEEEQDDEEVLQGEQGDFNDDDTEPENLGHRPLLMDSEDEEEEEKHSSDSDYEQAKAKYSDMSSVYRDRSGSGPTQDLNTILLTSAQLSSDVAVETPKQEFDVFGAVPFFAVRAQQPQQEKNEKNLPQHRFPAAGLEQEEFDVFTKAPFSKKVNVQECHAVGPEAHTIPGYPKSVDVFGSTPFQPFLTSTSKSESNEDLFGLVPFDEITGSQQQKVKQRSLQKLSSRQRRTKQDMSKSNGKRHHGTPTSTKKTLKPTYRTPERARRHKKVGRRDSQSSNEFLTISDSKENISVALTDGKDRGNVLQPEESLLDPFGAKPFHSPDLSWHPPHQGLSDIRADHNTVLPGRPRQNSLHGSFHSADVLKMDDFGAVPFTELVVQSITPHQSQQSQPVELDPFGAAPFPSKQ
Chain of Mitogen-activated protein kinase kinase kinase kinase 5 (Homo sapiens) (Q9Y4K4 whole entry, looked up): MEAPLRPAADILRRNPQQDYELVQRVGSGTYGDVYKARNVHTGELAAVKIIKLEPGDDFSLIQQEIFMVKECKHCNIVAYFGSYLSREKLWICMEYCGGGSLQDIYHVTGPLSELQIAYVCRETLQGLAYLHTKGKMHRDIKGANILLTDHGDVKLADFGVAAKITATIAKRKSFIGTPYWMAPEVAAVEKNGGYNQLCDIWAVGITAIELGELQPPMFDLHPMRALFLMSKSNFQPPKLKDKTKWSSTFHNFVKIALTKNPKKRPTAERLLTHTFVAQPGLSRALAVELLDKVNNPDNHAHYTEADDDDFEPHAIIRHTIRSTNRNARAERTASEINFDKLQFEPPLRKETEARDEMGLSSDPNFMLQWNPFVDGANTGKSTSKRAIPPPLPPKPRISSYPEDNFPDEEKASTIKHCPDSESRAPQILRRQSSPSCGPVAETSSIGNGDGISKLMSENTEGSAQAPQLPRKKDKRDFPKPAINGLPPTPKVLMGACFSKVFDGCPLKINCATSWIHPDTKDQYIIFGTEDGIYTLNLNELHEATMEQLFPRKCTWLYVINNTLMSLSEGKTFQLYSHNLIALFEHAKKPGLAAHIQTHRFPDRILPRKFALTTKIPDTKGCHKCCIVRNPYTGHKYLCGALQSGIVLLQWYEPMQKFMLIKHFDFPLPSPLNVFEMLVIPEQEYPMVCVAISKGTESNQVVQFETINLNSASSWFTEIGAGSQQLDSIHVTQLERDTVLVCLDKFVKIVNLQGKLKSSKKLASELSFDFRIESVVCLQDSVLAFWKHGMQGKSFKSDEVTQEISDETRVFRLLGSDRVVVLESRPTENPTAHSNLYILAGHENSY
Chain of eIF-2-alpha kinase GCN2 (Homo sapiens) (Q9P2K8 whole entry): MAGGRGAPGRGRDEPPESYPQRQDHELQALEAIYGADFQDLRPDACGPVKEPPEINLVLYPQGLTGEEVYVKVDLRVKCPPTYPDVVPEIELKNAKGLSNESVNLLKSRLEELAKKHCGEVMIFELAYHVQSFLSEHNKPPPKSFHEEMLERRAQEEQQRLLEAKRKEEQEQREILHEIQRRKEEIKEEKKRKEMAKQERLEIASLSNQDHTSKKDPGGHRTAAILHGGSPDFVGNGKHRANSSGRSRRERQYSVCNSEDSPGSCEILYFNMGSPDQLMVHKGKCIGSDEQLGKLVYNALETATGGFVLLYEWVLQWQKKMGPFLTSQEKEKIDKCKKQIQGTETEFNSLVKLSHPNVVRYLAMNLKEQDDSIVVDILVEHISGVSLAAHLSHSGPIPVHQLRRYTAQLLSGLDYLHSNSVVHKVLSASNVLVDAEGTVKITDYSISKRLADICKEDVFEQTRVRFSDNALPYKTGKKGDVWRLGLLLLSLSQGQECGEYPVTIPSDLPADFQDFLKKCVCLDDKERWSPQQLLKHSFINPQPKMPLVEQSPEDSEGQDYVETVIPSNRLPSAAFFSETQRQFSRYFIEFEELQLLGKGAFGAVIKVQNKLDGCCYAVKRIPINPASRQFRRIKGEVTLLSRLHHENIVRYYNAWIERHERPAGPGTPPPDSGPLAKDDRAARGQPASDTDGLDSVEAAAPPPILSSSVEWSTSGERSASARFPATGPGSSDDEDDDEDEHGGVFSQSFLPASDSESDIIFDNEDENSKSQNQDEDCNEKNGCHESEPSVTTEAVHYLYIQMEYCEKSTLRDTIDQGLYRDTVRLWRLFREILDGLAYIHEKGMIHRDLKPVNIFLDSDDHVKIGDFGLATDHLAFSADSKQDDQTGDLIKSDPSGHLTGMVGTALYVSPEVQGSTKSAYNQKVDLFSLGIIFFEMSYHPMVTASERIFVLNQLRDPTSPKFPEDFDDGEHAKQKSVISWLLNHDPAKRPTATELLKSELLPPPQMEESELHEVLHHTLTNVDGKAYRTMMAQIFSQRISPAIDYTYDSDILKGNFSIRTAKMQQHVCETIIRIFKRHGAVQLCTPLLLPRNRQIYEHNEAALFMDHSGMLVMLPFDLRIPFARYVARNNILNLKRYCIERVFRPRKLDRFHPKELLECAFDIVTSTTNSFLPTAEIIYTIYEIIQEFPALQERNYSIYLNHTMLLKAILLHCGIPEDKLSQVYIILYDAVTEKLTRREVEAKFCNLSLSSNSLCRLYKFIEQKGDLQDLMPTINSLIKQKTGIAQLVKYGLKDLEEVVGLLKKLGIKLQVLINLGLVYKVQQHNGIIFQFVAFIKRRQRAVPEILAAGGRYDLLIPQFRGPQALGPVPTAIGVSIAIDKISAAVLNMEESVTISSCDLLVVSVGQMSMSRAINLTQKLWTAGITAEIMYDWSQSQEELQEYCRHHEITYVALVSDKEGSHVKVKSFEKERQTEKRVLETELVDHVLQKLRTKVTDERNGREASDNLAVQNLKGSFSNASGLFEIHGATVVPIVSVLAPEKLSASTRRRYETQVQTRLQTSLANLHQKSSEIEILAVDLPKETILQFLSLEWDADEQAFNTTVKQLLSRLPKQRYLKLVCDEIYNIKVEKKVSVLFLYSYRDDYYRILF
Chain of Ephrin type-A receptor 2 (Homo sapiens) (P29317 whole entry): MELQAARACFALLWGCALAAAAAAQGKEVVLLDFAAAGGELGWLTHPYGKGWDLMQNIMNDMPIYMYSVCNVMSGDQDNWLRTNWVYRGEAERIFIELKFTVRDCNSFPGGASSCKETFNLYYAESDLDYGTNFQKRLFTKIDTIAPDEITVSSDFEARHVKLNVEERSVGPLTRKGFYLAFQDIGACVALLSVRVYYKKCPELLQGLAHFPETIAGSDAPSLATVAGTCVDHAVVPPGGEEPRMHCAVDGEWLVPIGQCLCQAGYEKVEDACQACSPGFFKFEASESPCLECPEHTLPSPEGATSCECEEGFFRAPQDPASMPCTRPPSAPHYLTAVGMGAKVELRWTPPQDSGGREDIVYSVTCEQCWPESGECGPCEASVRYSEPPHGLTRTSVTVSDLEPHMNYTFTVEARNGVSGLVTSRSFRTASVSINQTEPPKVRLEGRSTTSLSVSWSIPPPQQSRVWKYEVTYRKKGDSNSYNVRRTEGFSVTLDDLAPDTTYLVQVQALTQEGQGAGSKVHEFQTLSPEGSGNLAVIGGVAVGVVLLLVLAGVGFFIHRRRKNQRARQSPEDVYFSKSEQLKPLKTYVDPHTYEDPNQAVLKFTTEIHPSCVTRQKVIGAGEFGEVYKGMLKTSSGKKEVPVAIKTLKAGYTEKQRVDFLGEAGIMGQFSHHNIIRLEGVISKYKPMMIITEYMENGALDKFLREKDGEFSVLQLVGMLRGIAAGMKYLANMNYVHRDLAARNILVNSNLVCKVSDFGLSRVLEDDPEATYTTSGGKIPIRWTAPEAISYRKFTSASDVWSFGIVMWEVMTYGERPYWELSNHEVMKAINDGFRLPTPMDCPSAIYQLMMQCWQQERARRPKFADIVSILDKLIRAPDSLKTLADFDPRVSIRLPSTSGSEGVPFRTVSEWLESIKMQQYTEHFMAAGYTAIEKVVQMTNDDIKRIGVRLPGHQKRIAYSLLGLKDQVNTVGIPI
Chain of Glycogen synthase kinase-3 beta (P49841 whole entry, looked up): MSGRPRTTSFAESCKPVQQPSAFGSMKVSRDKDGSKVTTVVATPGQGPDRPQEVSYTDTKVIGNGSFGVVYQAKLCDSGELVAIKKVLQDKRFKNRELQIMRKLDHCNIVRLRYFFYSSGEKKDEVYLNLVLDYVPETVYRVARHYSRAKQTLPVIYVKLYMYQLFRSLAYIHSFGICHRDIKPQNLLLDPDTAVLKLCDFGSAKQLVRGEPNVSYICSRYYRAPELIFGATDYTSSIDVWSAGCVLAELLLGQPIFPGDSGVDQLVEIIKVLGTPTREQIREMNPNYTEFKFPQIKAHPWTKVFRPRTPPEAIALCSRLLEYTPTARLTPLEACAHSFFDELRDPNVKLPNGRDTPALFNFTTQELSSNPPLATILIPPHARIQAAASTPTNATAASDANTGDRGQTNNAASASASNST

Structure (SMILES): COc1cc(Nc2nc(C)cc(-c3cnn4nc(OC)ccc34)n2)cc(C(F)(F)F)c1
- % of control [1]: 87%

Structure (SMILES): COc1cc(N(C)c2ccnc3ccc(C(F)(F)F)cc23)cc(OC)c1OC
- % binding [2]: 81%
- % binding [3]: 97%

Structure (SMILES): Nc1cnc(N2CCc3cc(S(=O)(=O)Nc4c(F)cc(Cl)cc4F)cc(N4CCCC4=O)c32)nc1 [TP-020n]
- % of control [4]: 100%
- % of control [5]: 100%
- % of control [6]: 88%
- % of control [7]: 100%
- % of control [8]: 100%

Structure (SMILES): CCN(CC)CCCCNc1ncc2cc(-c3cc(OC)cc(OC)c3)c(NC(=O)NC(C)(C)C)nc2n1
- % of control [9]: 100%

Structure (SMILES): CC[C@@H]1[C@H](F)C(=O)N[C@@H]1COc1nccc2cc(C(N)=O)c(OC)cc12 [ZIMLOVISERTIB]
- % of inhibition [10]: 10.3%
- % of inhibition [11]: 12.8%
- % of inhibition [12]: 1.7%

Structure (SMILES): CCC(=O)N1CCN(c2ccc(-n3c(=O)ccc4cnc5ccc(-c6cnc7ccccc7c6)cc5c43)cc2C(F)(F)F)CC1
- % of control [13]: 53%

Structure (SMILES): Cc1cnc(Nc2ccc(F)cc2Cl)nc1-c1c[nH]c(C(=O)N[C@H](CO)c2cccc(Cl)c2)c1
- % of inhibition [14]: 3%

Structure (SMILES): CN(C)C/C=C/C(=O)Nc1ccc(C(=O)N2CCCC(Nc3ncc(Cl)c(-c4c[nH]c5ccccc45)n3)C2)cc1 (stereo unspecified)
- % of control [15]: 89%

Structure (SMILES): Cn1cc(-n2cnc3c(NCc4nc5cc(Cl)c(Cl)cc5[nH]4)nc(N4CCOCC4)nc32)cn1
- IC50 [16]: > 10 µM

Reference: ChEMBL document CHEMBL5465560, “Selectivity Literature for EUbOPEN Chemogenomic Library” (2024)
